The structures appear in SMILES notation. Like-named read-outs stand apart in the source and are kept apart here.

These results are taken from PMC10048907, “Antennal Transcriptome Analysis of Olfactory Genes and Characterization of Odorant Binding Proteins in Odontothrips loti (Thysanoptera: Thripidae)” (International Journal of Molecular Sciences, 2023).

The target of one test is recombinant O.lotOBP6. The experiment in a line: Fluorescence competitive binding assay with 1-NPN probe. Also on record: species or system Odontothrips loti. Particulars: for IC50: 1× PBS pH 7.2~7.4, room temperature, triplicates, read-out: IC50 (concentration of ligand halving the initial fluorescence value of 1-NPN). On the procedure: Fluorescence was measured on a F-7000 fluorescence spectrophotometer (Hitachi, Tokyo, Japan) at room temperature with a 1 cm light path quartz cuvette and 10 nm slits for both excitation and emission. The fluorescent probe N-phenyl-1-naphthylamine (1-NPN) was excited at 337 nm, and emission was recorded between 370 and 520 nm. The pure protein was dissolved with 1× PBS (pH 7.2~7.4) at a final concentration of 2 μM. The ligands and 1-NPN were dissolved in methanol at the concentration of 1 mM.
To measure the affinity of 1-NPN to O.lotOBP6, a 2 μM solution of protein in 2 mL 1× PBS was titrated with 1-NPN to final concentrations of 0.25~8 μM. The affinity of ligands was measured by the titration of the O.lotOBP6/1-NPN complex at the concentration of 2 μM by adding ligand to final concentrations of 0.25~10 μM. The dissociation constants of the competitors were calculated by the equation Ki = IC50/(1 + [1-NPN]/K1-NPN), where IC50 is the concentration of ligands halving the initial fluorescence value of 1-NPN, [1-NPN] is the free concentration of 1-NPN, and K1-NPN is the dissociation constant of the complex O.lotOBP6/1-NPN. Experiments were performed in triplicates. GraphPad Prism 7.0 was used to perform nonlinear regression analysis on the standard curve and the dissociation curve.

Test [1] has as its system Megalurothrips usitatus adults. More on the design: method as in PMID 32246573. Particulars: field trials, cited from earlier work.
The next test has as its system adult O. loti. In words: Y-tube olfactometer choice tests with volatiles. Format: in vivo, Odontothrips loti. The conditions noted are these: volatile 10 ng/μL in paraffin oil vs paraffin oil control, chi-square test; for Response of male adult O. loti in Y-tube olfactometer: male adults. Here is the method:
In the behavioral assays, the female and male adults were reared together, while 3–5 days old female and male adults were collected separately by reproductive morphology. Eleven ligands with high binding affinities to O.lotOBP6/1-NPN complex based on fluorescence binding assays were used in the test. The responses of female and male O. loti to 11 volatiles (Table 3) were measured derived from M. sativa (Liu Y-Q, unpublished data) or semiochemicals previously used in Y-tube olfactometer bioassays. The glass Y-tube consisted of a stem and two arms (10 cm long, 1 cm in diameter) separated from each other at an angle of 75°. Air drawn into the olfactometer was first purified by active charcoal, moistened by distilled water in a gas-washing bottle, and split into two streams, with a flow rate of 50 mL min^−1. Two glass flasks (100 mL) provided test and control odor sources. Connections between the components of the olfactometer apparatus were made with Teflon tubes. Olfactometer experiments were carried out in a dark room at 26 ± 1 °C. Light was provided by a LED light (28 W), which was placed at the Y end of the olfactometer. The volatile sample of 10 ng/μL was dissolved in paraffin oil as the test odor source, with the control sample being paraffin oil. A single O. loti was introduced to the base tube of the Y-tube and observed for 5 min. When the test thrip entered a half-length of either arm of the Y-tube and stayed for 1 min, the choice was recorded. […] After five test thrips were tested, the odor sources were swapped to avoid directional effects in the apparatus. To avoid the effects of travelling residual odors of test thrips, ten test thrips tests were followed by a new Y-tube, which was cleaned with 75% ethanol and oven dried at 60 °C for 30 min. Sixty biological replicates were carried out for each female or male treatment. Results were analyzed by Chi-square test using IBM SPSS 22.

Setting [2] is: O.lotOBP6/1-NPN complex 2 μM, calculated from IC50, read-out: Ki (dissociation constant, Ki = IC50/(1 + [1-NPN]/K1-NPN)).
Setting [3] is: competitive fluorescence binding curves, read-out: Ki (high binding affinities with the O.lotOBP6/1-NPN complex).

Consider `c1ccc(Nc2cccc3ccccc23)cc1` [1-NPN, N-phenyl-1-naphthylamine, reference compound], for which the Kd at recombinant O.lotOBP6 (2 μM protein titrated with 1-NPN 0.25~8 μM, Scatchard equation, read-out: Dissociation constant of recombinant O.lotOBP6 protein to 1-NPN) turned out to be 1050 nM.
As for `CCCCC(CC)CO` (centres unmarked) [2-Ethyl-1-hexanol], the IC50 at recombinant O.lotOBP6 (O.lotOBP6/1-NPN complex 2 μM) was found to be 3800 ± 310 nM. In addition, the Ki was 1570 ± 130 nM at recombinant O.lotOBP6 (setting [2]) and under 10000 nM on recombinant O.lotOBP6 (setting [3]).
Turning to `C=CCCC=O` [4-Pentenal], the IC50 on recombinant O.lotOBP6 (O.lotOBP6/1-NPN complex 2 μM) was over 50000 nM.
With `CC(=O)OC/C=C(\C)CC/C=C(\C)CCC=C(C)C` [(2E,6E)-farnesyl acetate], the “Duration of attraction effect” value in test [1] (dose of 60 μg) was “at least 6 days”. Also, the “Attractiveness to adults compared to the control” value in test [1] is reported as “significantly more attractive”.
As for `CC/C=C\CCOC(=O)CCC` [(Z)-3-Hexenyl butyrate], the “Response of male adult O. loti in Y-tube olfactometer” value in the test with adult O. loti is listed as “significantly attracted”. Besides, the IC50 on recombinant O.lotOBP6 (O.lotOBP6/1-NPN complex 2 μM) was 5580 ± 380 nM. The Ki on recombinant O.lotOBP6 (setting [2]) is 2300 ± 160 nM; at recombinant O.lotOBP6 (setting [3]), under 10000 nM.
As for `O=Cc1ccccc1` [Benzaldehyde], on recombinant O.lotOBP6 (O.lotOBP6/1-NPN complex 2 μM), the IC50 is 1620 ± 120 nM. Also, the Ki is 670 ± 50 nM on recombinant O.lotOBP6 (setting [2]) and under 10000 nM at recombinant O.lotOBP6 (setting [3]).
As for `Cc1cc(C(C)(C)C)c(O)c(C(C)(C)C)c1` [Butylated hydroxytoluene], at recombinant O.lotOBP6 (O.lotOBP6/1-NPN complex 2 μM), the IC50 was over 50000 nM.
Same read-out and setting: the result for `C=C(C)[C@H]1CC=C(C)CC1` [D-Limonene] reads over 50000 nM; that for `CCOC(=O)c1cccnc1` [Ethyl nicotinate], over 50000 nM.
As for `CC12CCC(CC1)C(C)(C)O2` [Eucalyptol], on recombinant O.lotOBP6 (O.lotOBP6/1-NPN complex 2 μM), the IC50 is 2060 ± 50 nM. Moreover, the Ki is 850 ± 20 nM on recombinant O.lotOBP6 (setting [2]) and under 10000 nM on recombinant O.lotOBP6 (setting [3]).
Turning to `C=CC(C)(O)CCC=C(C)C` (centres unmarked) [Linalool], the IC50 at recombinant O.lotOBP6 (O.lotOBP6/1-NPN complex 2 μM) is 6920 ± 240 nM. Besides, the Ki on recombinant O.lotOBP6 (setting [2]) is 2860 ± 100 nM; on recombinant O.lotOBP6 (setting [3]), under 10000 nM.
For `CCCCCCCCC=O` [Nonanal], in that order: 1400 ± 90 nM, 580 ± 40 nM and under 10000 nM.
Turning to `O=Cc1ccccc1O` [Salicylaldehyde], the IC50 on recombinant O.lotOBP6 (O.lotOBP6/1-NPN complex 2 μM) was 1100 ± 10 nM. Further, the Ki on recombinant O.lotOBP6 (setting [2]) is 450 nM; on recombinant O.lotOBP6 (setting [3]), under 10000 nM.
As to `CCCCCCCCCCCCC` [Tridecane], the IC50 on recombinant O.lotOBP6 (O.lotOBP6/1-NPN complex 2 μM) is 2600 ± 440 nM. Also, the Ki on recombinant O.lotOBP6 (setting [2]) was 1070 ± 180 nM; at recombinant O.lotOBP6 (setting [3]), under 10000 nM.
For `Cc1cccc(C)c1` [m-Xylene], in that order: 8410 ± 310 nM, 3470 ± 130 nM and under 10000 nM.
Taken in the same sequence, the figures for `COc1ccc(C=O)cc1` [p-Anisaldehyde] were 4590 ± 640 nM, 1890 ± 260 nM and under 10000 nM.
For `C=C(C)C1CCC(C)C(=O)C1` (centres unmarked) [p-Menth-8-en-2-one], the “Response of female adult O. loti in Y-tube olfactometer” value with adult O. loti (female adults) is “significantly attracted”. Further, the “Response of male adult O. loti in Y-tube olfactometer” value in the test on adult O. loti was “significantly attracted”. For the same compound, the IC50 at recombinant O.lotOBP6 (O.lotOBP6/1-NPN complex 2 μM) worked out at 340 ± 30 nM. For the same compound, the Ki at recombinant O.lotOBP6 (setting [2]) was 140 ± 10 nM; on recombinant O.lotOBP6 (setting [3]), under 10000 nM.
As to `CC1=CCC2CC1C2(C)C` (stereo not drawn) [α-Pinene], the IC50 on recombinant O.lotOBP6 (O.lotOBP6/1-NPN complex 2 μM) is over 50000 nM.
